Reference: the NIST ThermoML archive (doi:10.1007/s10765-010-0766-0)
± gives the expanded uncertainty stated by the source.

Test: wn = mass fraction of the nth substance listed
Conditions: Liquid, Pycnometric method, w2 = 0.4981

Q: What does the source list for `FC(F)C(F)(F)F` [pentafluoroethane] + FCF?
A: mass density (332.15 K, 7002 kPa): 921.1 ± 3.4 kg/m3; mass density (333.15 K, 7333 kPa): 920.9 ± 4 kg/m3; mass density (333.15 K, 7355 kPa): 921 ± 1.6 kg/m3; mass density (333.15 K, 7370 kPa): 921.1 ± 4 kg/m3; mass density (334.15 K, 7700 kPa): 920.8 ± 3.1 kg/m3; mass density (334.15 K, 7723 kPa): 920.9 ± 1.5 kg/m3; mass density (334.15 K, 7736 kPa): 921 ± 3.1 kg/m3; mass density (335.15 K, 8069 kPa): 920.7 ± 2.6 kg/m3; mass density (335.15 K, 8090 kPa): 920.8 ± 1.5 kg/m3; mass density (335.15 K, 8104 kPa): 920.9 ± 2.6 kg/m3; mass density (336.15 K, 8438 kPa): 920.7 ± 5.4 kg/m3; mass density (336.15 K, 8457 kPa): 920.7 ± 1.6 kg/m3; mass density (336.15 K, 8472 kPa): 920.8 ± 5.4 kg/m3; mass density (337.15 K, 8807 kPa): 920.6 ± 6.1 kg/m3; mass density (337.15 K, 8826 kPa): 920.6 ± 1.5 kg/m3; mass density (337.15 K, 8840 kPa): 920.8 ± 6.1 kg/m3; mass density (338.15 K, 9176 kPa): 920.5 ± 2.2 kg/m3; mass density (338.15 K, 9194 kPa): 920.5 ± 1.5 kg/m3; mass density (338.15 K, 9209 kPa): 920.7 ± 2.2 kg/m3; mass density (339.15 K, 9546 kPa): 920.4 ± 5.8 kg/m3; mass density (339.15 K, 9563 kPa): 920.4 ± 1.5 kg/m3; mass density (339.15 K, 9579 kPa): 920.6 ± 5.8 kg/m3; mass density (340.15 K, 9916 kPa): 920.3 ± 2 kg/m3; mass density (340.15 K, 9933 kPa): 920.3 ± 1.5 kg/m3; mass density (340.15 K, 9949 kPa): 920.5 ± 2 kg/m3; mass density (341.15 K, 10286 kPa): 920.3 ± 2 kg/m3; mass density (341.15 K, 10302 kPa): 920.2 ± 1.6 kg/m3; mass density (341.15 K, 10320 kPa): 920.4 ± 4.7 kg/m3; mass density (342.15 K, 10657 kPa): 920.2 ± 5.1 kg/m3; mass density (342.15 K, 10672 kPa): 920.1 ± 1.6 kg/m3; mass density (342.15 K, 10691 kPa): 920.4 ± 5.1 kg/m3; mass density (343.15 K, 11028 kPa): 920.1 ± 1.9 kg/m3; mass density (343.15 K, 11043 kPa): 920.1 ± 1.6 kg/m3; mass density (343.15 K, 11061 kPa): 920.3 ± 3.2 kg/m3; mass density (344.15 K, 11399 kPa): 920.1 ± 3.6 kg/m3; mass density (344.15 K, 11413 kPa): 920 ± 1.6 kg/m3; mass density (344.15 K, 11431 kPa): 920.2 ± 3.6 kg/m3; mass density (345.15 K, 6187 kPa): 774 ± 1.3 kg/m3; mass density (345.15 K, 11770 kPa): 920 ± 1.8 kg/m3; mass density (345.15 K, 11784 kPa): 919.9 ± 1.6 kg/m3; mass density (345.15 K, 11802 kPa): 920.1 ± 1.8 kg/m3; mass density (346.15 K, 6420 kPa): 774.1 ± 1.3 kg/m3; mass density (346.15 K, 12143 kPa): 919.9 ± 2.7 kg/m3; mass density (346.15 K, 12155 kPa): 919.8 ± 1.6 kg/m3; mass density (346.15 K, 12174 kPa): 920.1 ± 2.7 kg/m3; mass density (347.15 K, 6655 kPa): 774 ± 1.3 kg/m3; mass density (347.15 K, 6657 kPa): 773.9 ± 1.3 kg/m3; mass density (347.15 K, 12515 kPa): 919.8 ± 1.7 kg/m3; mass density (347.15 K, 12527 kPa): 919.7 ± 1.6 kg/m3; mass density (347.15 K, 12547 kPa): 920 ± 1.7 kg/m3; mass density (348.15 K, 6890 kPa): 773.9 ± 1.3 kg/m3; mass density (348.15 K, 6893 kPa): 773.9 ± 1.3 kg/m3; mass density (348.15 K, 12887 kPa): 919.8 ± 2.2 kg/m3; mass density (348.15 K, 12899 kPa): 919.6 ± 1.6 kg/m3; mass density (348.15 K, 12919 kPa): 919.9 ± 2.2 kg/m3; mass density (349.15 K, 7127 kPa): 773.9 ± 1.3 kg/m3; mass density (349.15 K, 7130 kPa): 773.8 ± 1.3 kg/m3; mass density (349.15 K, 13259 kPa): 919.7 ± 2.4 kg/m3; mass density (349.15 K, 13271 kPa): 919.6 ± 1.6 kg/m3; mass density (349.15 K, 13292 kPa): 919.8 ± 2.4 kg/m3; mass density (350.15 K, 7364 kPa): 773.8 ± 1.3 kg/m3; mass density (350.15 K, 7368 kPa): 773.8 ± 1.3 kg/m3; mass density (350.15 K, 13631 kPa): 919.6 ± 2 kg/m3; mass density (350.15 K, 13643 kPa): 919.5 ± 1.6 kg/m3; mass density (350.15 K, 13664 kPa): 919.7 ± 2 kg/m3; mass density (351.15 K, 7602 kPa): 773.8 ± 1.3 kg/m3; mass density (351.15 K, 7606 kPa): 773.7 ± 1.3 kg/m3; mass density (351.15 K, 14004 kPa): 919.5 ± 2.1 kg/m3; mass density (351.15 K, 14015 kPa): 919.4 ± 1.6 kg/m3; mass density (351.15 K, 14036 kPa): 919.6 ± 2.1 kg/m3; mass density (352.15 K, 7841 kPa): 773.7 ± 1.3 kg/m3; mass density (352.15 K, 7845 kPa): 773.6 ± 1.3 kg/m3; mass density (352.15 K, 14377 kPa): 919.4 ± 1.8 kg/m3; mass density (352.15 K, 14387 kPa): 919.3 ± 1.6 kg/m3; mass density (352.15 K, 14409 kPa): 919.6 ± 1.8 kg/m3; mass density (353.15 K, 8080 kPa): 773.7 ± 1.3 kg/m3; mass density (353.15 K, 8084 kPa): 773.6 ± 1.3 kg/m3; mass density (353.15 K, 14750 kPa): 919.3 ± 1.9 kg/m3; mass density (353.15 K, 14761 kPa): 919.2 ± 1.6 kg/m3; mass density (353.15 K, 14783 kPa): 919.5 ± 1.9 kg/m3; mass density (354.15 K, 8320 kPa): 773.6 ± 1.3 kg/m3; mass density (354.15 K, 8324 kPa): 773.5 ± 1.3 kg/m3; mass density (354.15 K, 15123 kPa): 919.2 ± 1.9 kg/m3; mass density (354.15 K, 15133 kPa): 919.1 ± 1.6 kg/m3; mass density (354.15 K, 15157 kPa): 919.4 ± 2.3 kg/m3; mass density (355.15 K, 8560 kPa): 773.6 ± 1.3 kg/m3; mass density (355.15 K, 8565 kPa): 773.5 ± 1.3 kg/m3; mass density (355.15 K, 15496 kPa): 919.1 ± 1.8 kg/m3; mass density (355.15 K, 15507 kPa): 919 ± 1.6 kg/m3; mass density (355.15 K, 15531 kPa): 919.3 ± 1.8 kg/m3; mass density (356.15 K, 8801 kPa): 773.5 ± 1.3 kg/m3; mass density (356.15 K, 8806 kPa): 773.4 ± 1.3 kg/m3; mass density (356.15 K, 15869 kPa): 919.1 ± 1.8 kg/m3; mass density (356.15 K, 15880 kPa): 919 ± 1.6 kg/m3; mass density (356.15 K, 15904 kPa): 919.2 ± 3.8 kg/m3
